≈ marks a conversion by molar mass, not a printed value. Where two headings read alike, the source gives them in different places. Bridge positions count the residues as written; N and C are the ends. Peptide text beside a SMILES is read from it.
What was measured:
C. parapsilosis = assay: Antifungal MIC, CLSI M27/M38, half-strength potato dextrose broth; type: cell-based, Candida parapsilosis; conditions: C. parapsilosis ATCC 22019; 24-72 hours
Description: (§1) Testing for antifungal activity used half-strength potato dextrose broth for peptides and RPMI for comparator antifungals fluconazole and voriconazole. CLSI M27 and M38 methodologies used for to measure MICs. Minimal Inhibitory Concentration (MIC) is the concentration of the compound, protein, or peptide at which there is no significant growth of the microorganism relative to the growth of the microorganism in growth medium lacking the compound, protein, or peptide.
(§2) […] The concentration range for peptides in potato dextrose broth was 0.06-2 mcg/ml, the concentration range for fluconazole was 0.125-64 mcg/ml, and the concentration range for voriconazole was 0.03-16 mcg/ml. MICs were determined at 24-72 hours.

Coccidioides sp. = type: cell-based
Aspergillus fumigatus = assay: Antifungal MIC, CLSI M27/M38, half-strength potato dextrose broth; type: cell-based
Description: as §1, §2

C. krusei = assay: as above; type: cell-based; conditions: C. krusei ATCC 6258; 24-72 hours
Description: as §1, §2

Candida auris = assay: as above; type: cell-based
Description: as §1, §2

Fusarium (F. solani) = assay: as above; type: cell-based; conditions: Fusarium F4 (F. solani)
Description: as §1, §2

P. variotii = assay: as above; type: cell-based; conditions: P. variotii MYA-363; 24-72 hours
Description: as §1, §2

Candida albicans = assay: as above; type: cell-based
Description: as §1, §2

Fusarium (F. oxysporum) = assay: as above; type: cell-based
Description: as §1, §2

Alternaria alternata = conditions: unit from method, none in Table 19
B. cinerea = assay: Drop inoculation assay on detached Nicotiana benthamiana leaves (semi-in planta); type: in vivo, Botrytis cinerea; conditions: 48 h; for Reduction of gray mold disease symptoms: detached N. benthamiana leaves, no single concentration stated
Cercospora sojina = conditions: unit from method, none in Table 19
[1] = tested on: Colletotrichum gloeosporioides; conditions: unit from method, none in Table 19

C[C@@H](O)[C@H](NC(=O)[C@H](CS)NC(=O)[C@H](Cc1ccccc1)NC(=O)[C@H](CS)NC(=O)[C@H](CCCNC(=N)N)NC(=O)[C@H](CCCNC(=N)N)NC(=O)[C@H](CCCNC(=N)N)NC(=O)[C@H](Cc1ccccc1)NC(=O)CNC(=O)[C@H](CCCNC(=N)N)NC(=O)[C@H](CS)NC(=O)[C@H](CCCNC(=N)N)NC(=O)CN)C(=O)N[C@H](C(=O)N[C@@H](Cc1c[nH]cn1)C(=O)N[C@@H](CS)C(=O)O)[C@@H](C)O [GMA4AC, reference compound] (H-GRCRGFRRRCFCTTHC-OH; N-terminus assumed)
MIC (μM) Fusarium graminearum (Fusarium graminearum): 6 µM (≈ 11.8 µg/mL)
MIC (μM) Botrytis cinerea (Botrytis cinerea): 6 µM (≈ 11.8 µg/mL)

CC[C@H](C)[C@H](NC(=O)[C@H](CCCNC(=N)N)NC(=O)[C@@H](NC(=O)[C@H](CS)NC(=O)[C@H](Cc1ccccc1)NC(=O)[C@H](CS)NC(=O)[C@H](CCCNC(=N)N)NC(=O)[C@H](CCCNC(=N)N)NC(=O)[C@H](CCCNC(=N)N)NC(=O)[C@H](Cc1ccccc1)NC(=O)CNC(=O)[C@H](CCCNC(=N)N)NC(=O)[C@H](CS)NC(=O)[C@H](CCCNC(=N)N)NC(=O)CNC(=O)CN)[C@@H](C)O)C(=O)N[C@@H](CS)C(N)=O [GMA4C_V2A] (H-GGRCRGFRRRCFCTRIC-NH2; N-terminus assumed)
MIC 100% (C. parapsilosis): 8 µg/mL (≈ 3.91 µM)
MIC 100% (Coccidioides sp.; Coccidioides sp. Cocci1): 8 µg/mL (≈ 3.91 µM)
MIC 100% (Coccidioides sp.; Coccidioides sp. Cocci2): 16 µg/mL (≈ 7.82 µM)
MIC 100% (Coccidioides sp.; Coccidioides sp. DI17-143): 16 µg/mL (≈ 7.82 µM)
MIC 100% (Aspergillus fumigatus; Aspergillus fumigatus AF293): 32 µg/mL (≈ 15.6 µM)
MIC 100% (Aspergillus fumigatus; Aspergillus fumigatus DI15-106): >32 µg/mL
MIC 100% (Aspergillus fumigatus; Aspergillus fumigatus DI15-116): >32 µg/mL
MIC 100% (C. krusei): 16 µg/mL (≈ 7.82 µM)
MIC 100% (Candida auris; Candida auris DI17-46): 16 µg/mL (≈ 7.82 µM)
MIC 100% (Candida auris; Candida auris DI17-47): 16 µg/mL (≈ 7.82 µM)
MIC 100% (Candida auris; Candida auris DI17-48): 16 µg/mL (≈ 7.82 µM)
MIC 100% (Fusarium (F. solani)): 8 µg/mL (≈ 3.91 µM)
MIC 100% (P. variotii): 8 µg/mL (≈ 3.91 µM)
MIC 100% (Candida albicans; Candida albicans ATCC 90028): 16 µg/mL (≈ 7.82 µM)
MIC 100% (Candida albicans; Candida albicans CA3): 16 µg/mL (≈ 7.82 µM)
MIC 100% (Candida albicans; Candida albicans SC5314): 16 µg/mL (≈ 7.82 µM)
MIC 100% (Fusarium (F. oxysporum); Fusarium F1 (F. oxysporum)): 8 µg/mL (≈ 3.91 µM)
MIC 100% (Fusarium (F. oxysporum); Fusarium F2 (F. oxysporum)): 16 µg/mL (≈ 7.82 µM)
B. cinerea MIC (Botrytis cinerea): 3 µM
MIC (μM) Botrytis cinerea (Botrytis cinerea): 6 µM (≈ 12.3 µg/mL)
MIC Values (μM) against B. cinerea (Botrytis cinerea): 3 µM (≈ 6.14 µg/mL)
SFM + 2 mM CaCl2 MIC (Botrytis cinerea): >6 µM
SFM + 100 mM KCl MIC (Botrytis cinerea): 6 µM
SFM + 100 mM NaCl MIC (Botrytis cinerea): 3 µM
SFM MIC (Botrytis cinerea): 6 µM

N=C(N)NCCC[C@H](NC(=O)CNC(=O)[C@@H](N)Cc1ccccc1)C(=O)N[C@@H](CS)C(=O)N[C@@H](CCCNC(=N)N)C(=O)NCC(=O)N[C@@H](Cc1ccccc1)C(=O)N[C@@H](CCCNC(=N)N)C(=O)N[C@@H](CCCNC(=N)N)C(=O)N[C@@H](CCCNC(=N)N)C(=O)N[C@@H](CS)C(=O)N[C@@H](Cc1ccccc1)C(=O)N[C@@H](CS)C(=O)N[C@@H](Cc1c[nH]c2ccccc12)C(=O)N[C@@H](CCCNC(=N)N)C(=O)N[C@@H](Cc1c[nH]c2ccccc12)C(=O)N[C@@H](CS)C(N)=O [GMA4C_V4A] (H-FGRCRGFRRRCFCWRWC-NH2; N-terminus assumed)
MIC 100% (C. parapsilosis): 8 µg/mL (≈ 3.49 µM)
MIC 100% (Coccidioides sp.; Coccidioides sp. Cocci1): 4 µg/mL (≈ 1.74 µM)
MIC 100% (Coccidioides sp.; Coccidioides sp. Cocci2): 16 µg/mL (≈ 6.97 µM)
MIC 100% (Coccidioides sp.; Coccidioides sp. DI17-143): 16 µg/mL (≈ 6.97 µM)
MIC 100% (Aspergillus fumigatus; Aspergillus fumigatus AF293): 16 µg/mL (≈ 6.97 µM)
MIC 100% (Aspergillus fumigatus; Aspergillus fumigatus DI15-106): 16 µg/mL (≈ 6.97 µM)
MIC 100% (Aspergillus fumigatus; Aspergillus fumigatus DI15-116): 32 µg/mL (≈ 13.9 µM)
MIC 100% (C. krusei): 8 µg/mL (≈ 3.49 µM)
MIC 100% (Candida auris; Candida auris DI17-46): 8 µg/mL (≈ 3.49 µM)
MIC 100% (Candida auris; Candida auris DI17-47): 8 µg/mL (≈ 3.49 µM)
MIC 100% (Candida auris; Candida auris DI17-48): 8 µg/mL (≈ 3.49 µM)
MIC 100% (Fusarium (F. solani)): 8 µg/mL (≈ 3.49 µM)
MIC 100% (P. variotii): 8 µg/mL (≈ 3.49 µM)
MIC 100% (Candida albicans; Candida albicans ATCC 90028): 8 µg/mL (≈ 3.49 µM)
MIC 100% (Candida albicans; Candida albicans CA3): 8 µg/mL (≈ 3.49 µM)
MIC 100% (Candida albicans; Candida albicans SC5314): 8 µg/mL (≈ 3.49 µM)
MIC 100% (Fusarium (F. oxysporum); Fusarium F1 (F. oxysporum)): 8 µg/mL (≈ 3.49 µM)
MIC 100% (Fusarium (F. oxysporum); Fusarium F2 (F. oxysporum)): 8 µg/mL (≈ 3.49 µM)
Fungal growth inhibition in presence of 2 mM CaCl2 (Botrytis cinerea): inhibit fungal growth
MIC (μM) Botrytis cinerea (Botrytis cinerea): 1.5 µM (≈ 3.44 µg/mL)
MIC Values (μM) against B. cinerea (Botrytis cinerea): 1.5 µM (≈ 3.44 µg/mL)
Potency relative to GMA4C_AC in presence of cations (Botrytis cinerea): 2 fold
SFM + 2 mM CaCl2 MIC (Botrytis cinerea): 3 to 6 µM
SFM + 100 mM KCl MIC (Botrytis cinerea): 1.5 µM
SFM + 100 mM NaCl MIC (Botrytis cinerea): 1.5 µM
SFM MIC (Botrytis cinerea): 1.5 to 3 µM

CC[C@H](C)[C@@H]1NC(=O)[C@H](CCCNC(=N)N)NC(=O)[C@H]([C@@H](C)O)NC(=O)[C@H](Cc2ccccc2)NC(=O)[C@H](Cc2c[nH]c3ccccc23)NC(=O)[C@H](Cc2ccccc2)NC(=O)[C@H](CCCNC(=N)N)NC(=O)[C@H](CCCNC(=N)N)NC(=O)[C@H](CC(C)C)NC(=O)[C@H](Cc2ccccc2)NC(=O)CNC(=O)[C@H](CCCCN)NC(=O)[C@@H](NC(=O)[C@H](CCCNC(=N)N)NC(=O)CNC(=O)CN)CSSC[C@@H](C(N)=O)NC1=O [GMA4C_V9] (H-GGRCKGFLRRFWFTRIC-NH2; disulfide 4-17; N-terminus assumed)
MIC, Alternaria alternata (Alternaria alternata): >12 µM
Reduction of gray mold disease symptoms (B. cinerea): effective in reducing gray mold disease symptoms
MIC, Cercospora sojina (Cercospora sojina): 6 µM (≈ 12.6 µg/mL)
MIC (μM) (SFM + 2 mM CaCl2) (Botrytis cinerea): 12 µM
MIC (μM) (SFM + 100 mM KCl) (Botrytis cinerea): 6 to 12 µM
MIC (μM) (SFM + 100 mM NaCl) (Botrytis cinerea): 3 µM
MIC (μM) SFM (Botrytis cinerea): 3 µM (≈ 6.3 µg/mL)
MIC, Colletotrichum gloeosporioides [1]: >12 µM

CC[C@H](C)[C@@H]1NC(=O)[C@H](CCCNC(=N)N)NC(=O)[C@H]([C@@H](C)O)NC(=O)[C@H](Cc2c[nH]c3ccccc23)NC(=O)[C@H](Cc2ccc(O)cc2)NC(=O)[C@H](Cc2c[nH]c3ccccc23)NC(=O)[C@H](CCCNC(=N)N)NC(=O)[C@H](CCCNC(=N)N)NC(=O)[C@H](CCCNC(=N)N)NC(=O)[C@H](Cc2ccccc2)NC(=O)CNC(=O)[C@H](CCCCN)NC(=O)[C@@H](NC(=O)[C@H](CCCNC(=N)N)NC(=O)CNC(=O)CN)CSSC[C@@H](C(N)=O)NC1=O [GMA4C_V10] (H-GGRCKGFRRRWYWTRIC-NH2; disulfide 4-17; N-terminus assumed)
MIC, Alternaria alternata (Alternaria alternata): >12 µM
Reduction of gray mold disease symptoms (B. cinerea): effective in reducing gray mold disease symptoms
Gray mold symptoms, drop inoculation assay (B. cinerea; peptide at 1.5 μM and 3 μM): more effective in reducing the symptoms of gray mold than GMA4C_V9
Gray mold symptoms, drop inoculation assay (B. cinerea; peptide at 6 μM): completely abrogates gray mold symptoms
MIC, Cercospora sojina (Cercospora sojina): 6 µM (≈ 13.2 µg/mL)
MIC (μM) (SFM + 2 mM CaCl2) (Botrytis cinerea): 3 µM
MIC (μM) (SFM + 100 mM KCl) (Botrytis cinerea): 3 to 6 µM
MIC (μM) (SFM + 100 mM NaCl) (Botrytis cinerea): 3 µM
MIC (μM) SFM (Botrytis cinerea): 3 µM (≈ 6.6 µg/mL)
MIC, Colletotrichum gloeosporioides [1]: >12 µM

C[C@H](NC(=O)CN)C(=O)N[C@H]1CSSC[C@@H](C(N)=O)NC(=O)[C@H](CCCCN)NC(=O)[C@H](CCCCN)NC(=O)[C@H](Cc2ccc(O)cc2)NC(=O)[C@H](Cc2c[nH]c3ccccc23)NC(=O)[C@H](Cc2ccccc2)NC(=O)[C@H](Cc2c[nH]c3ccccc23)NC(=O)[C@H](C)NC(=O)[C@H](Cc2ccccc2)NC(=O)CNC(=O)[C@H](Cc2ccccc2)NC(=O)CNC(=O)[C@H](CCC(N)=O)NC(=O)[C@H](CCCNC(=N)N)NC(=O)[C@H](Cc2c[nH]cn2)NC1=O [GMA5CA_V3] (H-GACHRQGFGFAWFWYKKC-NH2; disulfide 3-18; N-terminus assumed)
MIC, Alternaria alternata (Alternaria alternata): 3 µM (≈ 6.57 µg/mL)
MIC, Cercospora sojina (Cercospora sojina): 6 µM (≈ 13.1 µg/mL)
MIC (μM) (SFM + 2 mM CaCl2) (Botrytis cinerea): >12 µM
MIC (μM) (SFM + 100 mM KCl) (Botrytis cinerea): >12 µM
MIC (μM) (SFM + 100 mM NaCl) (Botrytis cinerea): >12 µM
MIC (μM) SFM (Botrytis cinerea): 3 µM (≈ 6.57 µg/mL)
MIC, Colletotrichum gloeosporioides [1]: >12 µM

C[C@H](NC(=O)CN)C(=O)N[C@H]1CSSC[C@@H](C(N)=O)NC(=O)[C@H](CCCCN)NC(=O)[C@H](CCCCN)NC(=O)[C@H](Cc2ccc(O)cc2)NC(=O)[C@H](Cc2ccccc2)NC(=O)[C@H](Cc2ccccc2)NC(=O)[C@H](Cc2ccccc2)NC(=O)[C@H](C)NC(=O)[C@H](Cc2ccccc2)NC(=O)CNC(=O)[C@H](Cc2ccccc2)NC(=O)CNC(=O)[C@H](CCC(N)=O)NC(=O)[C@H](CCCNC(=N)N)NC(=O)[C@H](Cc2c[nH]cn2)NC1=O [GMA5CA_V4] (H-GACHRQGFGFAFFFYKKC-NH2; disulfide 3-18; N-terminus assumed)
MIC, Alternaria alternata (Alternaria alternata): 3 µM (≈ 6.33 µg/mL)
MIC, Cercospora sojina (Cercospora sojina): 6 µM (≈ 12.7 µg/mL)
MIC (μM) (SFM + 2 mM CaCl2) (Botrytis cinerea): >12 µM
MIC (μM) (SFM + 100 mM KCl) (Botrytis cinerea): >12 µM
MIC (μM) (SFM + 100 mM NaCl) (Botrytis cinerea): >12 µM
MIC (μM) SFM (Botrytis cinerea): 3 µM (≈ 6.33 µg/mL)
MIC, Colletotrichum gloeosporioides [1]: >12 µM
